In patent US10167262B2, “Herbicidal substituted 3-arylpyrazoles” (FMC CORPORATION, priority 2014, dated 2019):

What was measured:
Test in all cases: Test C pre-/postemergence greenhouse test, plant response rating 0-100
Type in all cases: in vivo
[1] = tested on: Italian ryegrass (Lolium multiflorum); conditions: Postemergence; for Plant response rating, Ryegrass, Italian: scale 0 to 100
Description: (§1) Seeds of plant species selected from blackgrass (Alopecurus myosuroides), Italian ryegrass (Lolium multiflorum), winter wheat (Triticum aestivum), galium (catchweed bedstraw, Galium aparine), corn (Zea mays), large (Lg) crabgrass (Digitaria sanguinalis), giant foxtail (Setaria faberii), johnsongrass (Sorghum halepense), lambsquarters (Chenopodium album), morningglory (Ipomoea coccinea), yellow nutsedge (Cyperus esculentus), pigweed (Amaranthus retroflexus), ragweed (common ragweed, Ambrosia elatior), soybean (Glycine max), barnyardgrass (Echinochloa crus-galli), oilseed rape (Brassica napus), waterhemp (common waterhemp, Amaranthus rudis), and velvetleaf (Abutilon theophrasti) were planted into a blend of loam soil and sand and treated preemergence with test chemicals formulated in a non-phytotoxic solvent mixture which included a surfactant.
(§2) At the same time, plants selected from these crop and weed species and also winter barley (Hordeum vulgare), bermudagrass (Cynodon dactylon), downy bromegrass (Bromus tectorum), canarygrass (Phalaris minor), cocklebur (common cocklebur, Xanthium strumarium), woolly cupgrass (Eriochloa villosa), deadnettle (henbit deadnettle, Lamium amplexicaule), green foxtail (Setaria viridis), goosegrass (Eleusine indica), surinam grass (Brachiaria decumbens), windgrass (Apera spica-venti), chickweed (common chickweed, Stellaria media), kochia (Kochia scoparia), and wild oat (Avena fatua), were planted in pots containing Redi-Earth® planting medium (Scotts Company, 14111 Scottslawn Road, Marysville, Ohio 43041) comprising spaghnum peat moss, vermiculite, wetting agent and starter nutrients and treated with postemergence applications of test chemicals formulated in the same manner. Plants ranged in height from 2 to 18 cm (1- to 4-leaf stage) for postemergence treatments. Treated plants and controls were maintained in a greenhouse for 13 to 15 days, after which time all species were compared to controls and visually evaluated. Plant response ratings, summarized in Table C, are based on a scale of 0 to 100 where 0 is no effect and 100 is complete control. A dash (-) response means no test result.

[2] = tested on: johnsongrass (Sorghum halepense); conditions: Postemergence; for Plant response rating, Johnsongrass: scale 0 to 100
Description: as §1, §2

[3] = tested on: lambsquarters (Chenopodium album); conditions: Postemergence; for Plant response rating, Lambsquarters: scale 0 to 100
Description: as §1, §2

[4] = tested on: large (Lg) crabgrass (Digitaria sanguinalis); conditions: Postemergence; for Plant response rating, Crabgrass, Large: scale 0 to 100
Description: as §1, §2

[5] = tested on: yellow nutsedge (Cyperus esculentus); conditions: Postemergence; for Plant response rating, Nutsedge, Yellow: scale 0 to 100
Description: as §1, §2

[6] = tested on: morningglory (Ipomoea coccinea); conditions: Postemergence
Description: as §1, §2

[7] = tested on: soybean (Glycine max); conditions: Postemergence; for Plant response rating, Soybean: scale 0 to 100
Description: as §1, §2

[8] = tested on: pigweed (Amaranthus retroflexus); conditions: Postemergence; for Plant response rating, Pigweed: scale 0 to 100
Description: as §1, §2

[9] = tested on: galium (catchweed bedstraw, Galium aparine); conditions: Postemergence; for Plant response rating, Galium: scale 0 to 100
Description: as §1, §2

[10] = tested on: winter wheat (Triticum aestivum); conditions: Postemergence; for Plant response rating, Wheat: scale 0 to 100
Description: as §1, §2

[11] = tested on: velvetleaf (Abutilon theophrasti); conditions: Postemergence
Description: as §1, §2

[12] = tested on: giant foxtail (Setaria faberii); conditions: Postemergence; for Plant response rating, Foxtail, Giant: scale 0 to 100
Description: as §1, §2

[13] = tested on: corn (Zea mays); conditions: Postemergence; for Plant response rating, Corn: scale 0 to 100
Description: as §1, §2

CCn1cc(C(=O)c2ccccc2)c(-c2cc(Br)cc(Br)c2)n1 [Compound 38]
Plant response rating (0 to 100), Ryegrass, Italian ([1]; 62 g ai/ha): 0 | Plant response rating (0 to 100), Ryegrass, Italian ([1]; 125 g ai/ha): 0 | Plant response rating, Ryegrass, Italian ([1]; 250 g ai/ha): 0 | Plant response rating (0 to 100), Johnsongrass ([2]; 62 g ai/ha): 0 | Plant response rating (0 to 100), Johnsongrass ([2]; 125 g ai/ha): 0 | Plant response rating, Johnsongrass ([2]; 250 g ai/ha): 0 | Plant response rating (0 to 100), Lambsquarters ([3]; 62 g ai/ha): 75 | Plant response rating (0 to 100), Lambsquarters ([3]; 125 g ai/ha): 75 | Plant response rating, Lambsquarters ([3]; 250 g ai/ha): 100 | Plant response rating (0 to 100), Crabgrass, Large ([4]; 31 g ai/ha): 0 | Plant response rating (0 to 100), Crabgrass, Large ([4]; 62 g ai/ha): 0 | Plant response rating (0 to 100), Crabgrass, Large ([4]; 125 g ai/ha): 0 | Plant response rating, Crabgrass, Large ([4]; 250 g ai/ha): 0 | Plant response rating (0 to 100), Nutsedge, Yellow ([5]; 62 g ai/ha): 0 | Plant response rating (0 to 100), Nutsedge, Yellow ([5]; 125 g ai/ha): 0 | Plant response rating, Nutsedge, Yellow ([5]; 250 g ai/ha): 0 | Plant response rating (0 to 100), Morningglory ([6]; 62 g ai/ha): 0 | Plant response rating (0 to 100), Morningglory ([6]; 125 g ai/ha): 5 | Plant response rating, Morningglory ([6]; 250 g ai/ha, scale 0 to 100): 5 | Plant response rating (0 to 100), Soybean ([7]; 62 g ai/ha): 0 | Plant response rating (0 to 100), Soybean ([7]; 125 g ai/ha): 0 | Plant response rating, Soybean ([7]; 250 g ai/ha): 0 | Plant response rating (0 to 100), Pigweed ([8]; 62 g ai/ha): 85 | Plant response rating, Pigweed ([8]; 250 g ai/ha): 100 | Plant response rating (0 to 100), Galium ([9]; 31 g ai/ha): 0 | Plant response rating (0 to 100), Galium ([9]; 62 g ai/ha): 0 | Plant response rating (0 to 100), Galium ([9]; 125 g ai/ha): 0 | Plant response rating, Galium ([9]; 250 g ai/ha): 5 | Plant response rating (0 to 100), Wheat ([10]; 62 g ai/ha): 0 | Plant response rating (0 to 100), Wheat ([10]; 125 g ai/ha): 0 | Plant response rating, Wheat ([10]; 250 g ai/ha): 5 | Plant response rating (0 to 100), Velvetleaf ([11]; 62 g ai/ha): 75 | Plant response rating (0 to 100), Velvetleaf ([11]; 125 g ai/ha): 90 | Plant response rating (0 to 100), Foxtail, Giant ([12]; 31 g ai/ha): 0 | Plant response rating (0 to 100), Foxtail, Giant ([12]; 62 g ai/ha): 0 | Plant response rating (0 to 100), Foxtail, Giant ([12]; 125 g ai/ha): 0 | Plant response rating, Foxtail, Giant ([12]; 250 g ai/ha): 0

Cn1cc(C(=O)c2ccccc2)c(-c2cc(Br)cc(Br)c2)n1 [Compound 53]
Plant response rating (0 to 100), Ryegrass, Italian ([1]; 62 g ai/ha): 0 | Plant response rating (0 to 100), Ryegrass, Italian ([1]; 125 g ai/ha): 0 | Plant response rating, Ryegrass, Italian ([1]; 250 g ai/ha): 0 | Plant response rating, Ryegrass, Italian ([1]; 500 g ai/ha): 0 | Plant response rating (0 to 100), Corn ([13]; 62 g ai/ha): 5 | Plant response rating (0 to 100), Corn ([13]; 125 g ai/ha): 5 | Plant response rating, Corn ([13]; 250 g ai/ha): 5 | Plant response rating, Corn ([13]; 500 g ai/ha): 5 | Plant response rating (0 to 100), Johnsongrass ([2]; 62 g ai/ha): 0 | Plant response rating (0 to 100), Johnsongrass ([2]; 125 g ai/ha): 0 | Plant response rating, Johnsongrass ([2]; 250 g ai/ha): 0 | Plant response rating, Johnsongrass ([2]; 500 g ai/ha): 0 | Plant response rating (0 to 100), Lambsquarters ([3]; 125 g ai/ha): 30 | Plant response rating, Lambsquarters ([3]; 250 g ai/ha): 35 | Plant response rating, Lambsquarters ([3]; 500 g ai/ha): 100 | Plant response rating (0 to 100), Crabgrass, Large ([4]; 62 g ai/ha): 0 | Plant response rating (0 to 100), Crabgrass, Large ([4]; 125 g ai/ha): 0 | Plant response rating, Crabgrass, Large ([4]; 250 g ai/ha): 0 | Plant response rating, Crabgrass, Large ([4]; 500 g ai/ha): 0 | Plant response rating (0 to 100), Nutsedge, Yellow ([5]; 62 g ai/ha): 0 | Plant response rating (0 to 100), Nutsedge, Yellow ([5]; 125 g ai/ha): 0 | Plant response rating, Nutsedge, Yellow ([5]; 250 g ai/ha): 0 | Plant response rating, Nutsedge, Yellow ([5]; 500 g ai/ha): 0 | Plant response rating (0 to 100), Soybean ([7]; 62 g ai/ha): 0 | Plant response rating (0 to 100), Soybean ([7]; 125 g ai/ha): 0 | Plant response rating, Soybean ([7]; 250 g ai/ha): 0 | Plant response rating, Soybean ([7]; 500 g ai/ha): 5 | Plant response rating (0 to 100), Pigweed ([8]; 62 g ai/ha): 85 | Plant response rating (0 to 100), Pigweed ([8]; 125 g ai/ha): 85 | Plant response rating, Pigweed ([8]; 250 g ai/ha): 90 | Plant response rating, Pigweed ([8]; 500 g ai/ha): 90 | Plant response rating (0 to 100), Galium ([9]; 62 g ai/ha): 0 | Plant response rating (0 to 100), Galium ([9]; 125 g ai/ha): 0 | Plant response rating, Galium ([9]; 250 g ai/ha): 0 | Plant response rating, Galium ([9]; 500 g ai/ha): 10 | Plant response rating (0 to 100), Wheat ([10]; 62 g ai/ha): 0 | Plant response rating (0 to 100), Wheat ([10]; 125 g ai/ha): 0 | Plant response rating, Wheat ([10]; 250 g ai/ha): 0 | Plant response rating, Wheat ([10]; 500 g ai/ha): 0 | Plant response rating (0 to 100), Velvetleaf ([11]; 62 g ai/ha): 60 | Plant response rating (0 to 100), Velvetleaf ([11]; 125 g ai/ha): 75 | Plant response rating, Velvetleaf ([11]; 250 g ai/ha, scale 0 to 100): 90 | Plant response rating (0 to 100), Foxtail, Giant ([12]; 62 g ai/ha): 0 | Plant response rating (0 to 100), Foxtail, Giant ([12]; 125 g ai/ha): 0 | Plant response rating, Foxtail, Giant ([12]; 250 g ai/ha): 10 | Plant response rating, Foxtail, Giant ([12]; 500 g ai/ha): 10
